Reference: patent US10485747B2, “Hair-dye composition” (KAO CORPORATION, priority 2014, dated 2019)

Test: pKa, dissociation state and displayed color of the azo dyes
Assay type: physicochemical
Conditions: proton dissociated
Method: Thus, in the hair dye composition of the present invention having pH (25° C.) of 7.5 to 12, almost 80% or more of these azo dyes are present in an anionic state where a proton(s) is dissociated.

| color displayed when a proton(s) dissociates | Compound |
| --- | --- |
| red | CSc1nsc(/N=N/c2ccc(O)c(Cl)c2)n1 [Example A-1] |
| blue | NS(=O)(=O)c1ccc2nsc(/N=N/c3ccc(O)c(Cl)c3)c2c1 [Example A-2] |
| yellow | Cn1nccc1/N=N/c1ccc(O)c(Cl)c1 [Example A-3] |
